# Laboratory results from BindingDB's records for patent US20230399319 (Japan Tobacco, 2023).
# Target: NACHT, LRR and PYD domains-containing protein 3 (Homo sapiens, UniProt Q96P20)
# Test: Evaluation of NLRP3 Inflammasome Inhibitory Activity Assay
# Method: The NLRP3 inflammasome inhibitory activity of test compounds were evaluated CM the basis of the inhibitory activity of the IL-1β, production in THP1-Null cells (Product Number: thp-null, InvivoGen). […] A solution containing a test compound (20 μL/well) was added to test compound-setting wells. […] The supernatant of the culture was cryonically stored (set at −20° C.) until measurement of IL-1β.
# NACHT, LRR and PYD domains-containing protein 3, sequence (Q96P20 whole entry, the tested form may be a part): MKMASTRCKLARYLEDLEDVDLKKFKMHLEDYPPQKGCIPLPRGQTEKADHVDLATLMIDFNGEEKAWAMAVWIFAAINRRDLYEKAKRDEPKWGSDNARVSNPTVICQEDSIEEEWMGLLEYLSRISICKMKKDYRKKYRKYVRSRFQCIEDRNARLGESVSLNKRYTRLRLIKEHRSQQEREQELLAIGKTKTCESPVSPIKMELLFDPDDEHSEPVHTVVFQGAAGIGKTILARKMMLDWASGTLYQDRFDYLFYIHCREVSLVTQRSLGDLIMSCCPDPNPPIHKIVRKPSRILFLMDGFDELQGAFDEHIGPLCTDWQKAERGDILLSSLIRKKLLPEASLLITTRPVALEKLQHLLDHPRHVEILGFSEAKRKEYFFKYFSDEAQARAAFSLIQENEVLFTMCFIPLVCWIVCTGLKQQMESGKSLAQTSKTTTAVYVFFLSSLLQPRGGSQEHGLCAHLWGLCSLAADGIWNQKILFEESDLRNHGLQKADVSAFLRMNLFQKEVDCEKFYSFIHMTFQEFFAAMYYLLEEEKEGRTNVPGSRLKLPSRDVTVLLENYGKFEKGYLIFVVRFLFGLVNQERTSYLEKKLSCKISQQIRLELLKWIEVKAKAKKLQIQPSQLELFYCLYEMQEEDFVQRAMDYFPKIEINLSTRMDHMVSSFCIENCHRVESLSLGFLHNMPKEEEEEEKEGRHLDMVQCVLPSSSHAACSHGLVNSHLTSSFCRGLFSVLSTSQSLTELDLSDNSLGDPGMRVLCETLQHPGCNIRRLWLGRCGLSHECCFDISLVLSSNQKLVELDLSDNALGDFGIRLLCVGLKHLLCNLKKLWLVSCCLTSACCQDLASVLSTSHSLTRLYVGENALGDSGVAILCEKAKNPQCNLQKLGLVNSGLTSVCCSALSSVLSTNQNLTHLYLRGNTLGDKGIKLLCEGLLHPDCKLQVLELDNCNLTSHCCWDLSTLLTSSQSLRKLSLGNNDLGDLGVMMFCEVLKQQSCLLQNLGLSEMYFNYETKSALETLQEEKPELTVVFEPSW
row,SMILES,IC50 [nM]
1,"Cc1ccc(C(F)(F)F)cc1Nc1nc(C(=O)NS(=O)(=O)N2CCCN(c3ncccn3)[C@H](C)C2)co1 [US20230399319, Example 2-313]",22
2,"Cc1ccc(C(F)(F)F)cc1Nc1nc(C(=O)NS(=O)(=O)N2CCOC3(COC3)C2)co1 [US20230399319, Example 2-017]",83
3,"CCCCS(=O)(=O)N1CCCN(S(=O)(=O)NC(=O)c2coc(Nc3cn(C(C)C)nc3C(C)C)n2)CC1 [US20230399319, Example 2-161]",70
4,"CC(C)c1ccc(C(F)(F)F)cc1Nc1nc(C(=O)NS(=O)(=O)N2CCOCC2)co1 [US20230399319, Example 2-026]",< 30
5,"Cc1cc(F)c(C(C)C)cc1Nc1nc(C(=O)NS(=O)(=O)N2CCOCC(O)C2)co1 (stereo unspecified) [US20230399319, Example 2-350]",15
6,"Cc1ccc(C(F)(F)F)cc1Nc1nc(C(=O)NS(=O)(=O)N2CCN(S(=O)(=O)N(C)C)CC2)co1 [US20230399319, Example 2-266]",50
7,"Cc1cc(Nc2nc(C(=O)NS(=O)(=O)N3CCOC(COCC(C)(C)O)CC3)co2)c(C)cc1F (stereo unspecified) [US20230399319, Example 2-353]",16
8,"CCC(CC)n1cc(C)c(Nc2nc(C(=O)NS(=O)(=O)N3CCCOCC3)co2)n1 [US20230399319, Example 2-168]",9800
9,"CC(C)c1cc(Nc2nc(C(=O)NS(=O)(=O)N3CCCOCC3)co2)n(C(C)C)n1 [US20230399319, Example 2-202]",2200
10,"Cc1ccc(C(F)(F)F)cc1Nc1nc(C(=O)NS(=O)(=O)N(C)CC(=O)N(C)C)co1 [US20230399319, Example 2-110]",340
11,"Cc1ccc(C(F)(F)F)cc1Nc1nc(C(=O)NS(=O)(=O)N2CC(F)(F)C2)co1 [US20230399319, Example 2-077]",530
12,"COCCC1(C#N)CCCN(S(=O)(=O)NC(=O)c2coc(Nc3cc(C(F)(F)F)ccc3C)n2)CC1 (stereo unspecified) [US20230399319, Example 2-250]",30
13,"Cc1ccc(C(F)(F)F)cc1Nc1nc(C(=O)NS(=O)(=O)N2CCCC(C#N)(C(=O)N3CCCC3)CC2)co1 (stereo unspecified) [US20230399319, Example 2-261]",28
14,"Cc1cn(C(C)C)nc1Nc1nc(C(=O)NS(=O)(=O)N2CCCC(C#N)CC2)co1 (stereo unspecified) [US20230399319, Example 2-192]",160
15,"COCCN(Cc1ccccc1)S(=O)(=O)NC(=O)c1coc(Nc2cc(C(F)(F)F)ccc2C)n1 [US20230399319, Example 2-268]",55
16,"COC[C@H]1CCN(S(=O)(=O)NC(=O)c2coc(Nc3cc(C)c(F)cc3C)n2)CCO1 [US20230399319, Example 3-001]",72
17,"Cc1cc(Nc2nc(C(=O)NS(=O)(=O)N3CCCOCC3)co2)c(C(C)C)cc1F [US20230399319, Example 2-334]",26
18,"Cc1ccc(C)c(Nc2nc(C(=O)NS(=O)(=O)N3CCOC(COCC4CCC4)CC3)co2)c1 (stereo unspecified) [US20230399319, Example 2-342]",10
19,"Cc1ccc(C(F)(F)F)cc1Nc1nc(C(=O)NS(=O)(=O)N2CCC(F)(F)C2)co1 [US20230399319, Example 2-021]",90
20,"CCCOCC1CCN(S(=O)(=O)NC(=O)c2coc(Nc3cc(C)ccc3C)n2)CCO1 (stereo unspecified) [US20230399319, Example 2-323]",35
21,"Cc1cc(F)c(C(C)C)cc1Nc1nc(C(=O)NS(=O)(=O)N2CCOC(CO)CC2)co1 (stereo unspecified) [US20230399319, Example 2-348]",28
22,"CC(C)c1ccc(C(F)(F)F)cc1Nc1nc(C(=O)NS(=O)(=O)N(C)C)co1 [US20230399319, Example 2-025]",< 30
23,"Cc1ccc(C(F)(F)F)cc1Nc1nc(C(=O)NS(=O)(=O)N2CCC(F)(F)CC2)co1 [US20230399319, Example 2-023]",130

row,SMILES,IC50 [nM]
1,"Cc1ccc(C(F)(F)F)cc1Nc1nc(C(=O)NS(=O)(=O)N2CCCC(N(C)C)CC2)co1 (stereo unspecified) [US20230399319, Example 2-173]",120
2,"COC1COCCN(S(=O)(=O)NC(=O)c2coc(Nc3cc(C(C)C)c(F)cc3C)n2)C1 (stereo unspecified) [US20230399319, Example 2-343]",16
3,"CCOCC1CCN(S(=O)(=O)NC(=O)c2coc(Nc3cc(C)c(F)cc3C(C)C)n2)CCO1 (stereo unspecified) [US20230399319, Example 2-335]",18
4,"Cc1cc(Nc2nc(C(=O)NS(=O)(=O)N3CCCOCC3)co2)c(C)cc1F [US20230399319, Example 2-339]",30
5,"CC(=O)NCCN(C)S(=O)(=O)NC(=O)c1coc(Nc2cc(C(F)(F)F)ccc2C)n1 [US20230399319, Example 2-162]",300
6,"COC(=O)CC1COCCN1S(=O)(=O)NC(=O)c1coc(Nc2c3c(c(Cl)c4c2CCC4)CCC3)n1 (racemic) [US20230399319, Example 73]",130
7,"Cc1ccc(C(C)(C)C)cc1Nc1nc(C(=O)NS(=O)(=O)N(C)CCN(C)C)co1 [US20230399319, Example 2-132]",1900
8,"Cc1ccc(C(F)(F)F)cc1Nc1nc(C(=O)NS(=O)(=O)N2[C@H](C)CCC[C@@H]2C)co1 [US20230399319, Example 2-053]",89
9,"COC[C@H]1CCCN1S(=O)(=O)NC(=O)c1coc(Nc2cc(C(F)(F)F)ccc2C)n1 [US20230399319, Example 2-052]",130
10,"CCC(=O)N(C)C1CCCN(S(=O)(=O)NC(=O)c2coc(Nc3cc(C(F)(F)F)ccc3C)n2)C1 (stereo unspecified) [US20230399319, Example 2-255]",210
11,"Cc1ccc(C(F)(F)F)cc1Nc1nc(C(=O)NS(=O)(=O)N(C)CC2CCCC2)co1 [US20230399319, Example 2-208]",89
12,"Cc1ccc(C)c(Nc2nc(C(=O)NS(=O)(=O)N3CCOC(CC#N)CC3)co2)c1 (stereo unspecified) [US20230399319, Example 2-349]",1200
13,"CCOC[C@@H]1OCCN(S(=O)(=O)NC(=O)c2coc(Nc3cc(C)c(F)cc3C)n2)C[C@H]1OC [US20230399319, Example 3-007]",820
14,"Cc1cn(CC(F)(F)F)nc1Nc1nc(C(=O)NS(=O)(=O)N2CCCOCC2)co1 [US20230399319, Example 2-152]",6100
15,"Cc1ccc(C(F)(F)F)cc1Nc1nc(C(=O)NS(=O)(=O)N2CCOCC(n3cccn3)C2)co1 (stereo unspecified) [US20230399319, Example 2-304]",59
16,"Cc1ccc(C(C)C)cc1Nc1nc(C(=O)NS(=O)(=O)N(C)Cc2ccccn2)co1 [US20230399319, Example 2-167]",48
17,"CC(C)c1ccc(C(C)C)c(Nc2nc(C(=O)NS(=O)(=O)N3CCCOCC3)co2)c1 [US20230399319, Example 2-071]",43
18,"Cc1cc(F)c(C(C)C)cc1Nc1nc(C(=O)NS(=O)(=O)N2CCCOCC2)co1 [US20230399319, Example 2-336]",10
19,"Cc1ccc(C(F)(F)F)cc1Nc1nc(C(=O)NS(=O)(=O)N2CCCC(S(=O)(=O)C(C)C)CC2)co1 (stereo unspecified) [US20230399319, Example 2-317]",27
20,"CC1CCN(S(=O)(=O)NC(=O)c2coc(Nc3c4c(c(F)c5c3CCC5)CCC4)n2)C1 (stereo unspecified) [US20230399319, Example 2-008]",180
21,"CCCC1CCCN(S(=O)(=O)NC(=O)c2coc(Nc3cc(C(F)(F)F)ccc3C)n2)CC1 (stereo unspecified) [US20230399319, Example 2-233]",480
22,"Cc1ccc(C(F)(F)F)cc1Nc1nc(C(=O)NS(=O)(=O)N2CCC(C(F)(F)F)CC2)co1 [US20230399319, Example 2-024]",31
23,"COCCCN(C)S(=O)(=O)NC(=O)c1coc(Nc2cc(C(F)(F)F)ccc2C)n1 [US20230399319, Example 2-235]",94
